Results published in PubChem BioAssay (NCI).
“And” between values parts separate entries of the source, which are not always exact repeats. Equal entries are not always repeated.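 All cell lines were grown in 96-well plates and treated with compound for 48 hours. GI50 = concentration required for 50% inhibition of growth. TGI: total growth inhibition.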

How the values were obtained:
Assay in all cases: NCI tumour cell line growth inhibition, 48 h
HT29 colon = system: HT29 colon
HOP-62 NSCLC = system: HOP-62 NSCLC
SK-MEL-5 melanoma = system: SK-MEL-5 melanoma
SF-539 CNS = system: SF-539 CNS
A549 NSCLC = system: A549 NSCLC
SR leukemia = system: SR leukemia
UACC-257 melanoma = system: UACC-257 melanoma
SN12C renal = system: SN12C renal
UO-31 renal = system: UO-31 renal
NCI-H522 lung = system: NCI-H522 lung

Compound | TGI (HT29 colon) | TGI (HOP-62 NSCLC) | TGI (SK-MEL-5 melanoma) | TGI (SF-539 CNS) | TGI (A549 NSCLC) | TGI (SR leukemia) [µM] | TGI (UACC-257 melanoma) [µM] | TGI (SN12C renal) | TGI (UO-31 renal) | TGI (NCI-H522 lung) | GI50 (HT29 colon) [µM] | GI50 (HOP-62 NSCLC) [µM] | GI50 (SK-MEL-5 melanoma) [µM] | GI50 (SF-539 CNS) [µM] | GI50 (A549 NSCLC) [µM] | GI50 (SR leukemia) [µM] | GI50 (UACC-257 melanoma) [µM] | GI50 (SN12C renal) [µM] | GI50 (UO-31 renal) [µM] | GI50 (NCI-H522 lung) [µM]
O=C(/C=C/c1ccc(OCC(=O)N2CCN(c3ccccc3)CC2)cc1)c1ccccc1 | > 100 µM | > 100 µM | > 53 µM | 46.8 µM | > 100 µM | 7.45 | > 100 | > 100 µM | > 62 µM | > 56.8 µM | – | – | – | – | – | – | – | – | – | –
Nc1ccc2ncc(Nc3ccc(Cl)c(Cl)c3)nc2c1 | 34.9 µM | 84.3 µM | 36.1 µM | 40.4 µM | > 100 µM | > 100 | 54.6 | > 100 µM | > 100 µM | 48.8 µM | – | – | – | – | – | – | – | – | – | –
O=C(c1ccccc1)c1ccc(N2C(=O)C3C4c5ccccc5C(/C=C/C(=O)c5ccccn5)(c5ccccc54)C3C2=O)cc1 (stereo not given) | > 100 µM | > 100 µM | 5.71 µM | 4.91 µM | > 100 µM | > 100 | 46.6 | > 100 µM | 2.92 µM | 6.82 µM | 2.92 | 3.43 | 2.36 | 2.07 | 2.87 | 1.37 | 2.44 | 2.73 | 1.45 | 2.28
ClCc1ccc(Cn2cnc3nc(Cl)nc(Cl)c32)cc1 | – | 3.74 µM | 3.75 µM | 1.14 µM | 3.64 µM | > 100 | 4.33 | 3.15 µM | 2.88 µM | 4.41 µM | 0.97 | 1.98 | 0.801 | 0.593 | 1.91 | 4.16 | 1.95 | 1.41 | 1.41 | 1.85
CCOC(=O)c1c(/C=N\Nc2ccccc2)nc2ccccc2c1-c1ccccc1 | > 100 µM | > 100 µM | 85.6 µM | > 100 µM | > 100 µM | 61.4 | > 100 | > 100 µM | 98.7 µM | 67.1 µM | – | – | – | – | – | – | – | – | – | –
O=C1OC(c2ccccc2)=N/C1=C\c1ccc(N(CCCl)CCCl)cc1 | > 100 µM | > 100 µM | > 100 µM | > 100 µM | > 100 µM | > 69.7 | > 100 | > 100 µM | > 100 µM | > 95.7 µM | – | – | – | – | – | – | – | – | – | –
Cc1c(C(=O)C/C(=N/NC(=O)CC#N)C(N)=O)[n+](=O)c2ccccc2n1[O-] | > 100 µM | > 100 µM | > 100 µM | > 100 µM | > 100 µM | > 100 | > 100 | 97.7 µM | > 100 µM | 51.6 µM | – | – | – | – | – | – | – | – | – | –
COc1ccc(S(=O)(=O)NCCCNc2nccc(-c3c(-c4ccc(F)cc4)nc4sccn34)n2)cc1 | 20.2 µM | > 100 µM | 74.9 µM | > 100 µM | > 100 µM | > 100 | > 100 | > 100 µM | > 100 µM | > 100 µM | 2.84 | 18 | 5.49 | 17.1 | 4.33 | 3.69 | 12.6 | 7.55 | 3.83 | 5.02
CC1=CC(=O)N2[C@H](OC[C@@H]2C(C)C)O1 | > 100 µM | > 100 µM | > 100 µM | > 100 µM | > 100 µM | > 100 | > 100 | > 100 µM | > 100 µM | > 100 µM | – | – | – | – | – | – | – | – | – | –
Cn1c(=O)c(Oc2ccc(F)cc2F)cc2cnc(NC3CCC(O)CC3)nc21 (stereo not given) | > 25 µM | > 25 µM | > 25 µM | > 25 µM | > 25 µM | > 25 | > 25 | > 25 µM | > 25 µM | > 25 µM | > 25 | > 25 | > 25 | > 25 | > 25 | > 25 | > 25 | > 25 | 12.1 | > 25
CCOC(=O)C1=C(O)c2c(OC)ccc(OC)c2C(=O)C1=O | > 100 µM | > 100 µM | > 100 µM | > 100 µM | > 100 µM | > 100 | > 100 | > 100 µM | > 100 µM | > 100 µM | – | – | – | – | – | – | – | – | – | –
Nc1ccc(N)c2c1C(=O)c1cccc([N+](=O)[O-])c1C2=O | > 100 µM | 7.88 µM | 3.76 µM | > 22.4 µM | – | > 20.6 | – | > 100 µM | > 22.6 µM | 17.9 µM | 5.6 | 1.62 | 1.43 | 1.92 | 1.47 | 0.529 | 0.784 | 2.48 | 2.68 | 1.46
O=C1C(=O)c2c(ccc3ccccc23)-c2ccccc21 | 6.21 µM | 4.56 µM | 2.82 µM | 4.07 µM | 8.3 µM | > 100 | 4.07 | 3.31 µM | > 100 µM | 3.13 µM | 2.52 | 1.9 | 1.5 | 1.89 | 2.83 | 2.69 | 1.74 | 1.6 | 2.39 | 1.32
CC(C)(CCc1nc2ccccc2[nH]1)C(=O)O | > 100 µM | > 100 µM | > 100 µM | > 100 µM | > 100 µM | > 100 | > 100 | > 100 µM | > 100 µM | > 100 µM | – | – | – | – | – | – | – | – | – | –
C=CCCC1(CCP(=O)(c2ccccc2)c2ccccc2)OCCO1 | > 100 µM | > 100 µM | > 100 µM | > 100 µM | > 100 µM | > 100 | > 100 | > 100 µM | > 100 µM | > 100 µM | – | – | – | – | – | – | – | – | – | –
Cc1c(N)nc(C2CC(=O)N2CC(N)C(N)=O)nc1C(=O)NC(C(=O)NC(C)C(O)C(C)C(=O)NC(C(=O)NCCc1nc(-c2nc(C(=O)NCCNCC(C)O)cs2)cs1)C(C)O)C(OC1OC(CO)C(O)C(O)C1OC1OC(CO)C(O)C(OC(N)=O)C1O)c1cnc[nH]1 (stereo not given) | 50 µM and > 100 µM | 6.25 µM and 0.914 µM | 11.6 µM and 17.9 µM | 1.32 µM and 0.255 µM | 50 µM and > 100 µM | 50 | 49.4 | 36.4 µM and 27 µM | 17 µM and 21.6 µM | 10.8 µM and 7.89 µM | 33.1 | 0.188 | 0.644 | 0.0499 | 4.68 | 0.005 | 6.2 | 5.33 | 0.974 | 0.972
O=C(/C=C/N1CCN(c2cccc(Cl)c2)CC1)c1ccc(Cl)cc1 | > 100 µM | > 100 µM | 31.5 µM | 47.7 µM | > 100 µM | 59.3 | 63.5 | 65 µM | > 100 µM | 54.6 µM | 32.8 | 48.4 | 16.5 | 22.8 | 31.9 | 26.1 | 23.8 | 24.1 | 31.5 | 18.9
O=C(Nc1cccc(C(F)(F)F)c1)Nc1cc(S(=O)(=O)NC2CC2)ccc1-c1ccsc1 | 16.1 µM | 18.5 µM | 5.65 µM | 16.4 µM | 14.7 µM | 8.92 | 14.4 | 18.3 µM | 13.3 µM | 13 µM | 4.25 | 5.11 | 2.31 | 4.22 | 3.68 | 2.72 | 3.84 | 4.33 | 3.3 | 3.05
COC(=O)N/N=C(\c1nc2ccc(Cl)cc2[nH]c1=O)C(O)c1ccc([N+](=O)[O-])cc1 (stereo not given) | > 100 µM | > 100 µM | > 100 µM | > 100 µM | > 100 µM | > 100 | > 100 | > 100 µM | > 100 µM | > 100 µM | – | – | – | – | – | – | – | – | – | –
Cn1c(=O)c(-c2c(Cl)cccc2Cl)cc2cnc(Nc3ccc(N4CCOCC4)cc3)nc21 | 1.17 µM | 0.124 µM | 1.34 µM | 0.113 µM | – | 0.471 | > 22.4 | 4.65 µM | 6.66 µM | 0.42 µM | < 0.0467 | < 0.01 | 0.149 | < 0.0451 | 0.666 | 0.14 | – | 0.129 | 2.29 | 0.0202
